Results as given in ChEMBL document CHEMBL5625228, “Design, synthesis, and bioactivity evaluation of novel amide/sulfonamide derivatives as potential anti-inflammatory agents against acute lung injury and ulcerative colitis” (Eur J Med Chem, 2023).
Active and inactive are the calls of the source. The rule behind the calls is not given here.

How the values were obtained:
Mus musculus [1] = assay: Antiinflammatory activity against LPS-induced acute lung injury C57BL/6 mouse model assessed as decrease in TNF-alpha mRNA level in lung at 20 mg/kg, IG preincubated with compound for 30 mins followed by LPS-induction and measured after 6 hrs by qPCR analysis; type: functional, organism-based; conditions: time 390.0 min
Mus musculus [2] = assay: Antiinflammatory activity against DSS-induced acute colitis C57BL/6 mouse model assessed as reduction in mucosal damage in colon at 5 mg/kg, po pretreated with DSS for 7 days followed by compound addition for every day for 10 days by H and E staining based analysis; type: functional, organism-based; conditions: time 10.0 day
Mus musculus [3] = assay: Antiinflammatory activity against DSS-induced acute colitis C57BL/6 mouse model assessed as reduction in splenomegaly at 5 mg/kg, po pretreated with DSS for 7 days followed by compound addition for every day for 10 days; type: functional, organism-based; conditions: time 10.0 day
J774.A1 [4] = assay: Antiinflammatory activity against LPS-induced mouse J774.A1 cells assessed as increase in IkappaB-alpha level at 20 uM incubated for 2 hrs by Western blot analysis; type: functional, cell-based
Mus musculus [5] = assay: Antiinflammatory activity against DSS-induced acute colitis C57BL/6 mouse model assessed as reduction in IL-6 level in serum at 5 mg/kg, po pretreated with DSS for 7 days followed by compound addition for every day for 10 days by ELISA analysis; type: functional, organism-based; conditions: time 10.0 day
[6] = Tmax in Sprague-Dawley rat at 1 mg/kg, iv measured upto 24 hrs by LC-MS analysis; type: ADME, organism-based; conditions: in vivo
J774.A1 [7] = assay: Antiinflammatory activity against mouse J774.A1 cells assessed as inhibition of LPS-induced TNF-alpha production pretreated with compound for 30 mins followed by LPS induction and measured after 24 hrs by ELISA analysis; type: functional; conditions: time 1470 min; 24.5 h
J774.A1 [8] = assay: Antiinflammatory activity against LPS-induced mouse J774.A1 cells assessed as downregulation of p65 level at 20 uM incubated for 2 hrs by Western blot analysis; type: functional, cell-based
J774.A1 [9] = assay: Antiinflammatory activity against LPS-induced mouse J774.A1 cells assessed as reduction in p65 nuclear translocation at 20 uM incubated for 2 hrs by DAPI staining based immunofluorescence analysis; type: functional, cell-based
[10] = Tmax in Sprague-Dawley rat at 10 mg/kg, po measured upto 24 hrs by LC-MS analysis; type: ADME, organism-based; conditions: in vivo
[11] = Half life in Sprague-Dawley rat at 1 mg/kg, iv measured upto 24 hrs by LC-MS analysis; type: ADME, organism-based; conditions: in vivo
[12] = AUC (0 to infinity) in Sprague-Dawley rat at 1 mg/kg, iv measured upto 24 hrs by LC-MS analysis; type: ADME, organism-based; conditions: in vivo

Question: With `O=[N+]([O-])c1ccc(N2CCN(c3ccc(S(=O)(=O)NCc4ccccn4)cc3[N+](=O)[O-])CC2)cc1` as the compound, how does the Activity (Mus musculus [1]) read?
Answer: Active

Question: And the Activity (Mus musculus [2])?
Answer: Active

Question: What about the Activity (Mus musculus [3]) of the same compound?
Answer: Active

Question: And the Activity (J774.A1 [4])?
Answer: Active

Question: And the Activity (Mus musculus [5])?
Answer: Active

Question: And the Tmax [6]?
Answer: 8.4 min

Question: And the “inhibition (INH)” value (J774.A1 [7])?
Answer: 70.09%

Question: And the Activity (J774.A1 [8])?
Answer: Active

Question: And the Activity (J774.A1 [9])?
Answer: Active

Question: And the Tmax [10]?
Answer: 2.8 h

Question: What about the half-life [11] of the same compound?
Answer: 1.8 h

Question: And the AUC(0-inf) [12]?
Answer: 1120 ng·h/mL
